Experimental data published in PubChem BioAssay (NCI).
Where “and” joins values, the source holds several entries; their conditions need not be identical. Identical values can stand only once.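 A five-concentration, 48-hour dose response in 96-well plates underlies each endpoint, interpolated linearly between surrounding concentrations. Abbreviation: GI50, concentration required for 50% inhibition of growth. TGI: concentration producing complete growth inhibition.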

Key:
Assay in all cases: growth of human tumour cells (NCI), 48 h
SK-MEL-28 melanoma = system: SK-MEL-28 melanoma
SN12C renal = system: SN12C renal
HCC-2998 colon = system: HCC-2998 colon
LOX IMVI melanoma = system: LOX IMVI melanoma
OVCAR-8 ovarian = system: OVCAR-8 ovarian
NCI-H460 lung = system: NCI-H460 lung
SF-268 CNS = system: SF-268 CNS
U251 CNS = system: U251 CNS
HOP-62 NSCLC = system: HOP-62 NSCLC
CCRF-CEM leukemia = system: CCRF-CEM leukemia

SMILES	TGI (SK-MEL-28 melanoma) [µM]	TGI (SN12C renal) [µM]	GI50 (HCC-2998 colon) [µM]	TGI (HCC-2998 colon) [µM]	TGI (LOX IMVI melanoma) [µM]	TGI (OVCAR-8 ovarian) [µM]	TGI (NCI-H460 lung) [µM]	TGI (SF-268 CNS)	TGI (U251 CNS)	TGI (HOP-62 NSCLC) [µM]	TGI (CCRF-CEM leukemia) [µM]	GI50 (SK-MEL-28 melanoma) [µM]	GI50 (SN12C renal) [µM]	GI50 (LOX IMVI melanoma) [µM]	GI50 (OVCAR-8 ovarian) [µM]	GI50 (SF-268 CNS)	GI50 (U251 CNS)	GI50 (HOP-62 NSCLC) [µM]	GI50 (NCI-H460 lung) [µM]	GI50 (CCRF-CEM leukemia) [µM]
COc1cc2ccccc2c2cc([N+](=O)[O-])oc12	0.695	> 48.7	0.294	1.09	3.93	> 71.8	1.06	> 27.1 µM	7.14 µM	32	–	–	–	–	–	–	–	–	–	–
CC1(C)OC(=O)[C@@](C)([C@H](O)c2ccccc2)O1	–	> 100	–	> 100	–	> 100	> 100	> 100 µM	> 100 µM	> 100	> 100	–	–	–	–	–	–	–	–	–
Cc1cc(N2CCN(C)CC2)nc(NCc2cc(Nc3ccnc4cc(Cl)ccc34)ccc2F)n1	3.28	5.62	1.79	4.85	3.14	9.68	–	7.76 µM	3.73 µM	3.83	–	1.67	2.3	1.67	3.13	1.99 µM	1.87 µM	1.63	–	–
Cc1ccc(C2CC(c3ccc([N+](=O)[O-])cc3)=Nc3ccccc3S2)cc1 (stereo not given)	94.3	> 100	–	40.3	34.6	72.3	> 100	> 100 µM	–	> 100	34.2	–	–	–	–	–	–	–	–	–
NC1=NC(c2ccc(Cl)cc2)N(c2ccc(S(=O)(=O)Nc3ncccn3)cc2)C(N)=N1 (stereo not given)	> 100	> 100	–	–	> 100	> 100	> 100	> 100 µM	> 100 µM	> 100	> 100	–	–	–	–	–	–	–	–	–
[C-]#[O+].[Cl][Sn]([Cl])[Cl].[Cl][Sn]([Cl])[Cl].[Pt].c1ccc([PH+](c2ccccc2)c2ccccc2)cc1.c1ccc([PH+](c2ccccc2)c2ccccc2)cc1	> 100	> 100	60.7	> 100	41	65.7	> 100	51.1 µM	42.5 µM	–	–	69.5	56.6	14.2	22.5	23 µM	15.3 µM	–	33.8	–
O=C(CC(=O)C(=O)Nc1ccccc1)CC(c1ccccc1)c1c(O)c2ccccc2oc1=O (stereo not given)	> 100	–	–	> 100	> 100	–	> 100	> 100 µM	–	–	> 100	–	–	–	–	–	–	–	–	–
Cc1onc(-c2c(F)cccc2Cl)c1-c1ncc(-c2ccc(Cl)cc2)o1	> 100	> 100	5.95	> 100	–	> 100	> 100	> 100 µM	–	> 100	> 100	6.26	5.34	–	4.69	7.3 µM	–	8.45	3.18	3.81
Cc1cc2cccnc2c2ncccc12	> 100	> 100	2.75	68.2	8.6	11.9	2.54	27.7 µM	12.1 µM	> 100	–	2.56	1.18	0.674	0.626	0.739 µM	0.703 µM	1.45	0.508	–
C/C=C(\C)c1cc(=O)c2c(C)cc3c(c2o1)C(=O)c1c(O)c(C2CC(C)(N(C)C)C(O)C(C)O2)cc(C2CC(N(C)C)C(O)C(C)O2)c1C3=O (stereo not given)	–	–	–	–	–	–	–	0.738 µM and 4.52 µM	1.35 µM and 5.71 µM	–	> 52	–	–	–	–	0.134 µM and 0.632 µM	0.206 µM and 1.74 µM	–	–	–
O=C(/C=C1\C(=O)N(Cc2ccc([N+](=O)[O-])cc2)c2ccccc21)c1ccc(OCCN2CCCCC2)cc1	2.89	–	1.57	2.93	2.78	4.8	3.68	3.32 µM	3.09 µM	6.32	2.35	1.53	–	1.4	2.21	1.58 µM	1.72 µM	2.12	1.87	0.323
CN(CCC#N)c1ccc(/C=C(\C#N)c2cccc(C(F)(F)F)c2)cc1	> 100	> 100	5.08	> 100	> 100	> 100	> 100	> 100 µM	> 100 µM	> 100	–	6.4	4.17	3.75	3.99	6.66 µM	3.75 µM	6.2	3.76	–
CNC(=S)N/N=C1\CC(c2ccccc2)Oc2ccccc21 (stereo not given)	> 100	> 100	–	> 100	> 100	> 100	> 100	> 100 µM	> 100 µM	–	> 100	–	–	–	–	–	–	–	–	–
COc1ccc(Cl)cc1Nc1nc(C(F)(F)F)ccc1C(=O)N/N=C/c1ccc([N+](=O)[O-])cc1	> 100	–	1.29	7.27	4.79	62.2	4.86	5.8 µM	6.63 µM	11.4	> 100	2.79	–	1.39	2.77	1.69 µM	2.06 µM	2.35	1.9	30.8
CCNC(C)(C)C(SS)c1ccc(Br)cc1 (stereo not given)	> 100	> 100	–	–	60.1	> 100	> 100	> 100 µM	> 100 µM	> 100	60	–	–	–	–	–	–	–	–	–
CC1(C)C(c2ccccc2)=NN(O)c2ccccc21	> 100	–	–	> 100	–	> 100	> 100	> 100 µM	> 100 µM	> 100	> 100	–	–	–	–	–	–	–	–	–
O=[N+]([O-])c1cc([N+](=O)[O-])c(Cl)c(Cl)c1Cl	3.06	–	2.84	8.32	1.86	4.57	4.99	3.92 µM	3.02 µM	3.05	5.78	1.67	–	0.516	1.94	1.73 µM	1.59 µM	1.67	2.16	0.459
O=C(C/C(=N\NC(=O)C[n+]1ccccc1)C(=O)Nc1nc2ccc([N+](=O)[O-])cc2s1)CC(c1ccccc1)c1c(O)c2ccccc2oc1=O (stereo not given)	> 100	> 100	–	> 100	–	> 100	> 100	> 100 µM	–	> 100	> 100	–	–	–	–	–	–	–	–	–
CCCN(CCCN)/[N+]([O-])=N\O	> 100	> 100	–	> 100	–	> 100	> 100	> 100 µM	> 100 µM	> 100	> 100	–	–	–	–	–	–	–	–	–

SMILES	TGI (SK-MEL-28 melanoma) [µM]	TGI (SN12C renal) [µM]	GI50 (HCC-2998 colon) [µM]	TGI (HCC-2998 colon) [µM]	TGI (LOX IMVI melanoma) [µM]	TGI (OVCAR-8 ovarian) [µM]	TGI (NCI-H460 lung) [µM]	TGI (SF-268 CNS)	TGI (U251 CNS)	TGI (HOP-62 NSCLC) [µM]	TGI (CCRF-CEM leukemia) [µM]	GI50 (SK-MEL-28 melanoma) [µM]	GI50 (SN12C renal) [µM]	GI50 (LOX IMVI melanoma) [µM]	GI50 (OVCAR-8 ovarian) [µM]	GI50 (SF-268 CNS)	GI50 (U251 CNS)	GI50 (HOP-62 NSCLC) [µM]	GI50 (NCI-H460 lung) [µM]	GI50 (CCRF-CEM leukemia) [µM]
C[C@@H](C1CCC2C3C(=CC(=O)[C@@]21C)[C@H](C)[C@]1(CCC(=O)O1)C1OC31)[C@H]1C[C@]2(C)O[C@@](C)(O1)OC2(C)C (stereo not given in full)	> 100	> 100	–	–	> 100	> 100	> 100	> 100 µM	> 100 µM	–	> 100	–	–	–	–	–	–	–	–	–
N=Nc1c(OC(=O)Nc2ccccc2)[nH]c2ccccc12	> 100	48.7	–	29.7	33.7	33.9	25.7	> 100 µM	30.8 µM	36.4	–	–	–	–	–	–	–	–	–	–
O=S1CSCS1 (stereo not given)	> 100	> 100	–	> 100	> 100	> 100	–	> 100 µM	> 100 µM	> 100	> 100	–	–	–	–	–	–	–	–	–
CC1(C)C(c2ccccc2)C12CCC1(C2=O)C(c2ccccc2)C1(C)C (stereo not given)	78.3	73	–	34.4	42.7	> 100	–	97.7 µM	34.9 µM	60.5	36.5	–	–	–	–	–	–	–	–	–
COc1cc(=O)oc(/C=C/C=O)c1C	26.6	20.7	–	32.2	16.6	81.1	–	28.2 µM	28.6 µM	34.9	88.3	–	–	–	–	–	–	–	–	–
Cc1ccc(NC(=O)CC/C(CC(=O)C(C)(C)C)=N/NC(=O)C(N)=O)cc1C	> 100	> 100	–	> 100	–	> 100	> 100	> 100 µM	> 100 µM	> 100	> 100	–	–	–	–	–	–	–	–	–
CC1(C)CCC[C@@]2(C)C1C[C@H](O)[C@@]1(C)O[C@@](C)([C@H](O)CO)CCC21 (stereo not given in full)	> 100	> 100	–	> 100	–	> 100	> 100	> 100 µM	> 100 µM	> 100	> 100	–	–	–	–	–	–	–	–	–
CCN(CC)C(=O)CC1=C(C)/C(=C/c2[nH]c(-c3ccc[nH]3)cc2OC)N=C1C	–	–	–	–	0.513	22.5	14.2	21.3 µM	15.5 µM	11.6	35	–	–	0.199	0.455	0.633 µM	0.449 µM	0.504	0.366	0.258
O=C1c2ccccc2NC(c2cc(Cl)cc(Cl)c2O)N1CCc1ccccn1 (stereo not given)	> 100	> 100	–	> 100	> 100	> 100	> 100	> 100 µM	> 100 µM	> 100	–	–	–	–	–	–	–	–	–	–
COc1ccc(-c2nn(-c3ccc(NC(=O)c4ccc(Cl)c(C(F)(F)F)c4)cc3)cc2-c2ccncc2)cc1Cl	> 100	> 100	1.06	> 43.4	–	> 100	> 100	> 100 µM	7.82 µM	4.88	> 100	2.85	2.34	–	2.37	0.896 µM	0.408 µM	0.423	0.441	0.582
CN1CCN(CCCOc2cccc3nc(Nc4ccc(Cl)c(F)c4)ccc23)CC1	3.21	16	1.52	3.07	3.17	3.65	3.7	3.46 µM	3.28 µM	3.26	–	1.72	4.16	1.64	2.02	1.72 µM	1.81 µM	1.45	1.91	–
O=C(CCN1CCOCC1)Nc1ccc(F)cc1F	> 100	> 100	–	–	> 100	> 100	> 100	> 100 µM	> 100 µM	> 100	–	–	–	–	–	–	–	–	–	–
N#CNC(N)=NCCO	> 100	> 100	–	> 100	–	> 100	> 100	> 100 µM	> 100 µM	> 100	–	–	–	–	–	–	–	–	–	–
CC(N=C(N)N)C(=O)O (stereo not given)	> 100	> 100	–	> 100	> 100	> 100	–	> 100 µM	> 100 µM	> 100	> 100	–	–	–	–	–	–	–	–	–
CCOC(=O)c1cc(/C=C/C(C)=C/C(=O)OC)oc1-c1ccccc1	–	> 100	–	> 100	> 100	> 100	> 100	> 100 µM	> 100 µM	–	> 100	–	–	–	–	–	–	–	–	–
COC(=O)[C@H]1[C@H]2C[C@@H]3c4[nH]c5cc(OC)ccc5c4CCN3C[C@H]2C[C@@H](OC(=O)c2cc(OC)c(OC)c(OC)c2)[C@@H]1OC	–	–	–	47.1	–	49.6	59.9	> 100 µM	28.2 µM	28.1	44.1	–	–	–	–	–	–	–	–	–
[N-]=[N+]=Nc1ccc(CCN2CCN(c3cccc(C(F)(F)F)c3)CC2)cc1I	> 100	> 100	–	–	> 100	> 100	> 100	> 100 µM	> 100 µM	–	> 100	–	–	–	–	–	–	–	–	–
CC(C)(C)N/N=C(\Cc1occc(=O)c1O)C(=O)Nc1ccc([N+](=O)[O-])cc1[N+](=O)[O-]	> 100	> 100	–	–	> 100	> 100	> 100	> 100 µM	> 100 µM	> 100	> 100	–	–	–	–	–	–	–	–	–
COc1cc([N+](=O)[O-])c(S(=O)(=O)O)cc1NS(=O)(=O)c1ccc(C)cc1	> 100	> 100	–	–	> 100	> 100	> 100	> 100 µM	> 100 µM	> 100	> 100	–	–	–	–	–	–	–	–	–
